How the values were obtained:
Assay type in all cases: functional
[1] = Cytotoxicity against human NCI60 cells after 48 hrs by sulforhodamine B assay; conditions: NCI60, 48 h; for TGI: read-out: pTGI (converted)
[2] = Cytotoxicity against human NCI60 cells assessed as cell growth at 10 uM after 48 hrs by sulforhodamine B assay; conditions: NCI60, 48 h, read-out: Activity
[3] = tested on: HOP-92; assay: Cytotoxicity against human HOP92 cells after 48 hrs by sulforhodamine B assay; conditions: HOP-92, 48 h; for TGI: read-out: pTGI (converted)
[4] = tested on: OVCAR-3; assay: Cytotoxicity against human OVCAR-3 cells after 48 hrs by sulforhodamine B assay; conditions: OVCAR-3, 48 h; for CC50: read-out: pLC50 (the source's name) (converted); for TGI: read-out: pTGI (converted)
[5] = tested on: A498; assay: Cytotoxicity against human A498 cells after 48 hrs by sulforhodamine B assay; conditions: A498, 48 h; for CC50: read-out: pLC50 (the source's name) (converted); for TGI: read-out: pTGI (converted)
[6] = tested on: CCRF-CEM; assay: Cytotoxicity against human CCRF-CEM cells after 48 hrs by sulforhodamine B assay
[7] = tested on: SR; assay: Cytotoxicity against human SR cells after 48 hrs by sulforhodamine B assay
[8] = tested on: HOP-62; assay: Cytotoxicity against human HOP62 cells after 48 hrs by sulforhodamine B assay; conditions: HOP-62, 48 h
[9] = tested on: 786-0; assay: Cytotoxicity against human 786-0 cells after 48 hrs by sulforhodamine B assay; conditions: 786-0, 48 h
[10] = tested on: HCT-116; assay: Cytotoxicity against human HCT116 cells after 48 hrs by sulforhodamine B assay; conditions: HCT-116, 48 h
[11] = tested on: T47D; assay: Cytotoxicity against human T47D cells after 48 hrs by sulforhodamine B assay
[12] = tested on: RXF 393; assay: Cytotoxicity against human RXF393 cells after 48 hrs by sulforhodamine B assay; conditions: RXF 393, 48 h
[13] = tested on: CAKI-1; assay: Cytotoxicity against human Caki1 cells after 48 hrs by sulforhodamine B assay; conditions: CAKI-1, 48 h
[14] = read-out: pLC50 (the source's name) (converted)

Compound | TGI [1] [µM] | growth at 10 µM [2] [%] | other results
O=C(N/N=C/c1ccncc1)c1ccc(C(F)(F)F)nc1Nc1cccc(C(F)(F)F)c1 | 8.71 | 10.8 | 
Cc1ccc(Cl)cc1Nc1nc(C(F)(F)F)ccc1C(=O)N/N=C/c1ccc([N+](=O)[O-])cc1 |  | 85.7 | 
COc1ccc(Cl)cc1Nc1nc(C(F)(F)F)ccc1C(=O)N/N=C/c1ccc(N(C)C)cc1 |  | 95.6 | 
O=C(N/N=C/c1ccc([N+](=O)[O-])cc1)c1ccc(C(F)(F)F)nc1Nc1cccc(C(F)(F)F)c1 |  | 95.2 | 
COc1cc(/C=N/NC(=O)c2ccc(C(F)(F)F)nc2Nc2ccc(Cl)cc2C)ccc1O | 10.5 | 26.8 | 
O=C(N/N=C/c1c(Cl)cccc1Cl)c1ccc(C(F)(F)F)nc1Nc1cccc(C(F)(F)F)c1 | 10.2 | 5.01 | GI50 [3]: 0.0447 µM; TGI [3]: 0.417 µM; GI50 [4]: 0.191 µM; CC50 [4]: 77.6 µM; TGI [4]: 0.646 µM; GI50 [5]: 0.191 µM; CC50 [5]: 9.33 µM; TGI [5]: 0.646 µM
COc1ccc(Cl)cc1Nc1nc(C(F)(F)F)ccc1C(=O)N/N=C/c1cccc(O)c1 |  | 59.1 | 
COc1cc(/C=N/NC(=O)c2ccc(C(F)(F)F)nc2Nc2ccc(Cl)cc2C)cc(OC)c1OC |  | 32.3 | 
Cc1cc(Cl)ccc1Nc1nc(C(F)(F)F)ccc1C(=O)N/N=C/c1ccc(Cl)cc1Cl |  | 60.1 | 
Cc1ccc(Cl)cc1Nc1nc(C(F)(F)F)ccc1C(=O)N/N=C/c1ccccc1Cl |  | 36.2 | 
Cc1cc(Cl)ccc1Nc1nc(C(F)(F)F)ccc1C(=O)N/N=C/c1ccccc1Cl | 5.13 | 14.8 | GI50 [4]: 0.191 µM; CC50 [4]: 8.32 µM; TGI [4]: 0.513 µM; GI50 [5]: < 0.01 µM; CC50 [5]: 17.8 µM; TGI [5]: 2.69 µM
COc1cc(/C=N/NC(=O)c2ccc(C(F)(F)F)nc2Nc2cccc(C(F)(F)F)c2)ccc1O |  | 50.1 | 
Cc1cc(Cl)ccc1Nc1nc(C(F)(F)F)ccc1C(=O)N/N=C/c1ccc(F)cc1 | 7.08 | 6.66 | 
COc1ccc(Cl)cc1Nc1nc(C(F)(F)F)ccc1C(=O)N/N=C/c1cc(OC)c(OC)c(OC)c1 | 10.5 | 17.6 | 
Cc1cc(Cl)ccc1Nc1nc(C(F)(F)F)ccc1C(=O)NCC(=O)N/N=C/c1c(Cl)cccc1Cl |  | 68.1 | 
O=C(O)CCCc1ccc(N(CCCl)CCCl)cc1 [CHLORAMBUCIL] | 35.5 |  | 
COc1cc(/C=N/NC(=O)c2ccc(C(F)(F)F)nc2Nc2cc(Cl)ccc2C)cc(OC)c1OC |  | 94 | 
Cc1cc(Cl)ccc1Nc1nc(C(F)(F)F)ccc1C(=O)N/N=C/c1cccnc1 |  | 47.2 | 
Cc1cc(Cl)ccc1Nc1nc(C(F)(F)F)ccc1C(=O)N/N=C/c1ccc(N(C)C)cc1 | 66.1 | 23.2 | GI50 [1]: 1.7 µM
Nc1nc(C(F)(F)F)ccc1C(=O)N/N=C/c1c(Cl)cccc1Cl |  | 102 | 
COc1ccc(Cl)cc1Nc1nc(C(F)(F)F)ccc1C(=O)N/N=C/c1ccc([N+](=O)[O-])cc1 | 8.71 | 0.92 | 
Cc1ccc(Cl)cc1Nc1nc(C(F)(F)F)ccc1C(=O)N/N=C/c1ccc(N(C)C)cc1 |  | 52.1 | 
Cc1cc(Cl)ccc1Nc1nc(C(F)(F)F)ccc1C(=O)N/N=C/c1ccc(Cl)cc1 | 7.59 | -7.31 | 
O=C(N/N=C/c1cccnc1)c1ccc(C(F)(F)F)nc1Nc1cccc(C(F)(F)F)c1 |  | 70.3 | 
COc1cc(/C=N/NC(=O)c2ccc(C(F)(F)F)nc2Nc2cccc(C(F)(F)F)c2)cc(OC)c1OC |  | 44.5 | 

Compound | TGI [1] [µM] | growth at 10 µM [2] [%] | other results
Cc1ccc(Cl)cc1Nc1nc(C(F)(F)F)ccc1C(=O)N/N=C/c1ccc(Cl)cc1Cl |  | 62.6 | 
O=C(N/N=C/c1c(Cl)cccc1Cl)c1cccnc1Nc1cccc(C(F)(F)F)c1 | 39.8 | 37.8 | 
Cc1ccc(Cl)cc1Nc1nc(C(F)(F)F)ccc1C(=O)N/N=C/c1ccc(F)cc1 |  | 33 | 
O=C(N/N=C/c1ccc(Cl)cc1Cl)c1ccc(C(F)(F)F)nc1Nc1cccc(C(F)(F)F)c1 |  | 66.3 | 
COc1ccc(Cl)cc1Nc1nc(C(F)(F)F)ccc1C(=O)N/N=C/c1ccncc1 |  | 62.5 | 
COc1ccc(Cl)cc1Nc1nc(C(F)(F)F)ccc1C(=O)N/N=C/c1ccc(F)cc1 |  | 36.5 | 
O=C(N/N=C/c1ccc(F)cc1)c1ccc(C(F)(F)F)nc1Nc1cccc(C(F)(F)F)c1 | 4.47 | 7.73 | 
O=C(N/N=C/c1ccc(Cl)cc1)c1ccc(C(F)(F)F)nc1Nc1cccc(C(F)(F)F)c1 | 6.61 | 9.64 | GI50 [3]: 0.0437 µM; CC50 [3, 14]: 20.9 µM; TGI [3]: 0.589 µM
Cc1ccc(Cl)cc1Nc1nc(C(F)(F)F)ccc1C(=O)N/N=C/c1ccc(Cl)cc1 | 5.25 | 0.47 | GI50 [1]: 1.48 µM
Cc1cc(Cl)ccc1Nc1nc(C(F)(F)F)ccc1C(=O)N/N=C/c1ccc([N+](=O)[O-])cc1 | 4.68 | -7.22 | GI50 [6]: 0.0427 µM; TGI ([6]; read-out: pTGI (converted)): 0.0776 µM
Cc1ccc(Cl)cc1Nc1nc(C(F)(F)F)ccc1C(=O)N/N=C/c1cccc(O)c1 |  | 90.1 | 
COc1cc(/C=N/NC(=O)c2ccc(C(F)(F)F)nc2Nc2cc(Cl)ccc2OC)ccc1O |  | 42.1 | 
COc1cc(/C=N/NC(=O)c2ccc(C(F)(F)F)nc2Nc2cc(Cl)ccc2C)ccc1O |  | 47.2 | 
O=C(N/N=C/c1c(Cl)cccc1Cl)c1ccccc1Nc1cccc(C(F)(F)F)c1 |  | 90.6 | 
Cc1ccc(Cl)cc1Nc1nc(C(F)(F)F)ccc1C(=O)N/N=C/c1ccncc1 |  | 67.9 | 
CN(C)c1ccc(/C=N/NC(=O)c2ccc(C(F)(F)F)nc2Nc2cccc(C(F)(F)F)c2)cc1 |  | 60.2 | 
O=C(N/N=C/c1cccc(O)c1)c1ccc(C(F)(F)F)nc1Nc1cccc(C(F)(F)F)c1 |  | 103 | 
O=C(N/N=C/c1ccccc1Cl)c1ccc(C(F)(F)F)nc1Nc1cccc(C(F)(F)F)c1 |  | 34.2 | 
COc1ccc(Cl)cc1Nc1nc(C(F)(F)F)ccc1C(=O)N/N=C/c1ccc(Cl)cc1Cl |  | 72.1 | 
Cc1ccc(Cl)cc1Nc1nc(C(F)(F)F)ccc1C(=O)N/N=C/c1cccnc1 | 12.6 | 20.9 | GI50 [7]: 0.0977 µM
Cc1ccc(Cl)cc1Nc1nc(C(F)(F)F)ccc1C(=O)N/N=C/c1c(Cl)cccc1Cl | 6.17 | -3.82 | GI50 [8]: 0.251 µM; CC50 [8, 14]: 5.75 µM; TGI ([8]; read-out: pTGI (converted)): 0.776 µM; GI50 [9]: 0.251 µM; CC50 [9, 14]: 3.02 µM; TGI ([9]; read-out: pTGI (converted)): 0.603 µM; GI50 [7]: 0.0562 µM; CC50 [7, 14]: 41.7 µM; TGI ([7]; read-out: pTGI (converted)): 2.69 µM; GI50 [10]: 0.214 µM; CC50 [10, 14]: 3.31 µM; TGI ([10]; read-out: pTGI (converted)): 0.49 µM
Cc1cc(Cl)ccc1Nc1nc(C(F)(F)F)ccc1C(=O)N/N=C/c1cccc(O)c1 | 11 | 27.1 | GI50 [11]: 0.0355 µM; CC50 [11, 14]: 21.4 µM; TGI ([11]; read-out: pTGI (converted)): 2.14 µM; GI50 [12]: 0.195 µM; TGI ([12]; read-out: pTGI (converted)): 11.2 µM; GI50 [13]: 0.017 µM; CC50 [13, 14]: 24 µM; TGI ([13]; read-out: pTGI (converted)): 3.31 µM
COc1ccc(Cl)cc1Nc1nc(C(F)(F)F)ccc1C(=O)N/N=C/c1cccnc1 | 79.4 | 44.7 | GI50 [1]: 2.95 µM
Cc1cc(Cl)ccc1Nc1nc(C(F)(F)F)ccc1C(=O)N/N=C/c1ccncc1 |  | 54.2 | 
